Measurements reported in US6264974A, “Buccal and sublingual administration of physostigmine” (priority 1998, dated 2001).
“Also recorded” adds a separate entry of the source.

Assay: Intravenous and buccal pharmacokinetics of Physostigmine in rats (plasma levels by HPLC with fluorimetric detector)
Type: in vivo, male Lewis rats
Settings: rat plasma, 200 μg/kg, Physostigmine hemisulfate in normal saline
Protocol: Lewis Rats were used to evaluate the buccal/sublingual delivery of Physostigmine. The Physostigmine drug concentration in rat plasma was determined using a conventional high pressure liquid chromatography analytical procedure which measures drug concentration by fluorimetric detector.
To determine whether Physostigmine would be absorbed by mucosa and produce a sustained plasma level, two separate groups of male Lewis rats, were administered Physostigmine hemisulfate, a salt of Physostigmine, intravenously or buccally in normal saline. The rats weighed approximately 300 g and were fasted overnight prior to dosing. All rats were anesthetized with pentobarbital (50 mg/kg) prior to dosing. The jugular vein was cannulated and attached to a syringe through 3-way stopcock for blood collections. Blood samples (1 ml) were withdrawn through the jugular cannula and replaced with an equal volume of fresh blood (37 degrees C) from separate blood donor rats after each sampling as a function of time. […]
The terminal decay rate constant (k) and the terminal half-life (t1/2) after intravenous administration was calculated by linear regression of the terminal portion of the individual sample In Cp (plasma drug concentration) versus time plot of FIG. 1.

Question: With CNC(=O)Oc1ccc2c(c1)[C@]1(C)CCN(C)[C@@H]1N2C [Physostigmine, 1,2,3,3a,8,8a-hexahydro-1,3a,8-trimethylpyrrolo[2,3-b]indol-5-ol methylcarbamate] as the compound, how does the half-life (0.2 mg/kg, intravenous, FIG. 1, read-out: plasma half-life (terminal half-life, t1/2)) read?
Answer: The half-life was 25 min.

Question: What about the “plasma concentration vs. time profile” value (buccal, esophagus ligated, over eight hours (t1/2 could not be determined), FIG. 2) of the same compound?
Answer: The value was “did not decay for the period of the experiment; also recorded: highly sustained”.
